# Measurements published in patent US20240166652A1, “MODULATORS OF THE INTEGRATED STRESS PATHWAY” (Calico Life Sciences LLC, priority 2017, published 2024).
# Test system: ATF4 luciferase reporter in HEK293T cells
# Assay: ATF4-Luc assay (ATF4 luciferase reporter, tunicamycin-treated HEK293T cells)
# Type: cell-based, human
# Conditions: Homo sapiens, HEK-293T; HEK293T cells carrying the ATF4 luciferase reporter, 1 μg/mL tunicamycin, 7 hours
# Protocol: In order to test exemplary compounds of the invention in a cellular context, a stable VWMD cell line was first constructed. The ATF4 reporter was prepared by fusing the human full-length ATF4 5′-UTR (NCBI Accession No. BC022088.2) in front of the firefly luciferase (FLuc) coding sequence lacking the initiator methionine as described in Sidrauski et al (eLife 2013). The construct was used to produce recombinant retroviruses using standard methods and the resulting viral supernatant was used to transduce HEK293T cells, which were then subsequently selected with puromycin to generate a stable cell line.
# HEK293T cells carrying the ATF4 luciferase reporter were plated on polylysine coated 384-well plates (Greiner Bio-one) at 30,000 cells per well. Cells were treated the next day with 1 μg/mL tunicamycin and 200 nM of a compound of Formula (I) for 7 hours. Luminescence was measured using One Glo (Promega) as specified by the manufacturer. Cells were maintained in DMEM with L-glutamine supplemented with 10% heat-inactivated FBS (Gibco) and Antibiotic-Antimycotic solution (Gibco).
# Table 2 below summarizes the EC50 data obtained using the ATF4-Luc assay for exemplary compounds of the invention.
row,SMILES,EC50 [nM]
1,"O=C(COc1ccc(F)cc1)NC12CCC(NC(=O)COc3ccc(F)cc3)(CC1)[C@@H](O)C2 [Compound 550, N,N′-[(2S)-2-hydroxybicyclo[2.2.2]octane-1,4-diyl]bis[2-(4-fluorophenoxy)acetamide]]",< 10
2,"Cc1cccc(OCC(=O)NC23CCC(NC(=O)COc4ccc(Cl)c(F)c4)(CC2)C[C@@H]3O)c1 [Compound 509, 2-(4-chloro-3-fluorophenoxy)-N-{(3S)-3-hydroxy-4-[2-(3-methylphenoxy)acetamido]bicyclo[2.2.2]octan-1-yl}acetamide]",< 10
3,"O=C(CNc1ccc(Cl)cc1)NC12CC(NC(=O)COc3ccc(Cl)c(F)c3)(C1)C2 [Compound 203, N-{3-[2-(4-chloro-3-fluorophenoxy)acetamido]bicyclo[1.1.1]pentan-1-yl}-N^2-(4-chlorophenyl)glycinamide]",50 to 250
4,"O=C(COc1ccc(C(F)(F)F)c(F)c1)NC12CCC(NC(=O)COc3ccc(F)cc3)(CC1)[C@@H](O)C2 [Compound 844, 2-(4-fluorophenoxy)-N-[(2S)-4-{2-[3-fluoro-4-(trifluoromethyl)phenoxy]acetamido}-2-hydroxybicyclo[2.2.2]octan-1-yl]acetamide]",< 10
5,"O=C(COc1ccc(Cl)c(F)c1)NC12CCC(NC(=O)COc3ccc(Cl)cn3)(CC1)[C@@H](O)C2 [Compound 640, 2-(4-chloro-3-fluorophenoxy)-N-[(3S)-4-{2-[(5-chloropyridin-2-yl)oxy]acetamido}-3-hydroxybicyclo[2.2.2]octan-1-yl]acetamide]",< 10
6,"O=C(COc1ccc(C(F)(F)F)nc1)NC12CCC(NC(=O)COc3ccc(Cl)c(F)c3)(CC1)C(O)C2 (stereo not drawn) [Compound 313, 2-(4-chloro-3-fluorophenoxy)-N-[2-hydroxy-4-(2-{[6-(trifluoromethyl)pyridin-3-yl]oxy}acetamido)bicyclo[2.2.2]octan-1-yl]acetamide]",< 10
7,"O=C(COc1ccc(F)c(C(F)(F)F)c1)NC12CCC(NC(=O)COc3ccc(C(F)(F)F)c(F)c3)(CC1)[C@@H](O)C2 [Compound 822, 2-[3-fluoro-4-(trifluoromethyl)phenoxy]-N-[(2S)-4-{2-[4-fluoro-3-(trifluoromethyl)phenoxy]acetamido}-2-hydroxybicyclo[2.2.2]octan-1-yl]acetamide]",< 10
8,"O=C(COc1ccc(Cl)c(F)c1)N[C@@H]1[C@@H]2CC[C@@](NC(=O)COc3ccc(Cl)c(F)c3)(C2)C[C@@H]1O (racemic) [Compound 638, rac-N,N′-[(1R,3S,4R,5R)-3-hydroxybicyclo[3.2.1]octane-1,4-diyl]bis[2-(4-chloro-3-fluorophenoxy)acetamide]]",< 10
9,"O=C(COc1ccc(Cl)c(F)c1)NC12CCC(NCCOc3ccc(F)cc3)(CC1)C(O)C2 (stereo not drawn) [Compound 331, 2-(4-chloro-3-fluorophenoxy)-N-(4-{[2-(4-fluorophenoxy)ethyl]amino}-3-hydroxybicyclo[2.2.2]octan-1-yl)acetamide]",< 10
10,"O=C(COc1ccc(Cl)c(F)c1)NC12CC(NC(=O)[C@@H](O)c3ccc(Cl)cc3)(C1)C2 [Compound 307, (2S)—N-{3-[2-(4-chloro-3-fluorophenoxy)acetamido]bicyclo[1.1.1]pentan-1-yl}-2-(4-chlorophenyl)-2-hydroxyacetamide]",> 2000
11,"COc1ccc(OCC(=O)NC23CC(NC(=O)COc4ccc(Cl)c(F)c4)(C2)C3)cn1 [Compound 241, 2-(4-chloro-3-fluorophenoxy)-N-(3-{2-[(6-methoxypyridin-3-yl)oxy]acetamido}bicyclo[1.1.1]pentan-1-yl)acetamide]",10 to 50
12,"O=C(COc1ccc(Cl)c(F)c1)NC12CCC(NC(=O)COc3cccc(Cl)c3)(CC1)[C@@H](O)C2 [Compound 660, 2-(4-chloro-3-fluorophenoxy)-N-{(3S)-4-[2-(3-chlorophenoxy)acetamido]-3-hydroxybicyclo[2.2.2]octan-1-yl}acetamide]",< 10
13,"O=C(COc1ccc(F)c(F)c1)NC12CC(NC(=O)COc3ccc(F)c(F)c3)(C1)C2 [Compound 185, N,N′-(bicyclo[1.1.1]pentane-1,3-diyl)bis[2-(3,4-difluorophenoxy)acetamide]]",10 to 50
14,"O=C(COc1ccc(Cl)c(F)c1)NC12CCC(NC(=O)COc3ccccn3)(C1)C2 [Compound 404, 2-(4-chloro-3-fluorophenoxy)-N-(4-{2-[(pyridin-2-yl)oxy]acetamido}bicyclo[2.1.1]hexan-1-yl)acetamide]",500 to 2000
15,"NC(=O)C1CC2(NC(=O)COc3ccc(Cl)c(F)c3)CCC1(NC(=O)COc1ccc(Cl)c(F)c1)CC2 (stereo not drawn) [Compound 441, 1,4-bis[2-(4-chloro-3-fluorophenoxy)acetamido]bicyclo[2.2.2]octane-2-carboxamide]",10 to 50
16,"O=C(COc1ccc(Cl)c(Cl)c1)NC12CC(NC(=O)COc3ccccn3)(C1)C2 [Compound 401, 2-(3,4-dichlorophenoxy)-N-(3-{2-[(pyridin-2-yl)oxy]acetamido}bicyclo[1.1.1]pentan-1-yl)acetamide]",10 to 50
17,"O=C(COc1ccccn1)NC12CCC(NC(=O)COc3cccc(Cl)c3)(CC1)[C@@H](O)C2 [Compound 662, 2-(3-chlorophenoxy)-N-[(2S)-2-hydroxy-4-{2-[(pyridin-2-yl)oxy]acetamido}bicyclo[2.2.2]octan-1-yl]acetamide]",250 to 500
18,"CN(CCC(=O)O)C1CC2(NC(=O)COc3ccc(Cl)c(F)c3)CCC1(NC(=O)COc1ccc(Cl)c(F)c1)CC2 (stereo not drawn) [Compound 698, 3-[{1,4-bis[2-(4-chloro-3-fluorophenoxy)acetamido]bicyclo[2.2.2]octan-2-yl}(methyl)amino]propanoic Acid]",250 to 500
19,"Cc1ccc(OC(=O)NC23CCC(NC(=O)COc4ccc(Cl)c(F)c4)(CC2)CC3O)cc1 (stereo not drawn) [Compound 433, 4-methylphenyl {4-[2-(4-chloro-3-fluorophenoxy)acetamido]-2-hydroxybicyclo[2.2.2]octan-1-yl}carbamate]",50 to 250
20,"O=C(COc1cccc(OC(F)(F)F)c1)NC12CC(NC(=O)COc3ccc(Cl)c(F)c3)(C1)C2 [Compound 392, 2-(4-chloro-3-fluorophenoxy)-N-(3-{2-[3-(trifluoromethoxy)phenoxy]acetamido}bicyclo[1.1.1]pentan-1-yl)acetamide]",< 10
21,"O=C(COc1ccc(Cl)c(F)c1)NC12CCC(NS(=O)(=O)Cc3cccc(C(F)(F)F)c3)(CC1)[C@@H](O)C2 [Compound 430, 2-(4-chloro-3-fluorophenoxy)-N-[(3S)-3-hydroxy-4-({[3-(trifluoromethyl)phenyl]methanesulfonyl}amino)bicyclo[2.2.2]octan-1-yl]acetamide]",500 to 2000
22,"Cc1ccnc(OCC(=O)NC23CCC(NC(=O)COc4ccc(Cl)c(F)c4)(CC2)C[C@@H]3O)n1 [Compound 753, 2-(4-chloro-3-fluorophenoxy)-N-[(3S)-3-hydroxy-4-{2-[(4-methylpyrimidin-2-yl)oxy]acetamido}bicyclo[2.2.2]octan-1-yl]acetamide]",250 to 500
23,"O=C(COc1ccc(Cl)c(F)c1)NC12CCC(NC(=O)COc3ccc(C(F)(F)F)nc3)(CC1)[C@@H](O)C2 (single isomer, unassigned) [Compound 302]",< 10
24,"Cc1cc(OCC(=O)NC23CCC(NC(=O)COc4ccc(Cl)c(F)c4)(CC2)C[C@@H]3O)cc(C)n1 [Compound 395, 2-(4-chloro-3-fluorophenoxy)-N-[(3S)-4-{2-[(2,6-dimethylpyridin-4-yl)oxy]acetamido}-3-hydroxybicyclo[2.2.2]octan-1-yl]acetamide]",500 to 2000
25,"O=C(COc1ccc(Cl)cc1)NC12C3C4C1C1C2C3C41NC(=O)COc1ccc(Cl)cc1 (stereo not drawn) [Compound 103, N,N′-(pentacyclo[4.2.0.0^2,50^3,80^4,7]octane-1,4-diyl)bis[2-(4-chlorophenoxy)-acetamide]]",10 to 50
26,"Cc1ccc(OCC(=O)NC23CC(NC(=O)COc4ccc(Cl)c(F)c4)(C2)C3)c(N)n1 [Compound 229, 2-[(2-amino-6-methylpyridin-3-yl)oxy]-N-{3-[2-(4-chloro-3-fluorophenoxy)acetamido]bicyclo[1.1.1]pentan-1-yl}acetamide]",500 to 2000
27,"O=C(COc1ccc(Cl)c(F)c1)NC12CCC(NC(=O)COc3ccc(Cl)c(F)c3)(CC1)C(F)C2 (stereo not drawn) [Compound 365, N,N′-(2-fluorobicyclo[2.2.2]octane-1,4-diyl)bis[2-(4-chloro-3-fluorophenoxy)acetamide]]",< 10
28,"O=C(COc1cnc(C(=O)O)nc1)NC12CCC(NC(=O)COc3ccc(Cl)c(F)c3)(CC1)[C@@H](O)C2 [Compound 642, 5-[2-({(3S)-4-[2-(4-chloro-3-fluorophenoxy)acetamido]-3-hydroxybicyclo[2.2.2]octan-1-yl}amino)-2-oxoethoxy]pyrimidine-2-carboxylic Acid]",> 2000
29,"O=C(Cc1ccc(OC(F)(F)F)cc1)NC12CCC(NC(=O)COc3ccc(Cl)c(F)c3)(CC1)C(O)C2 (stereo not drawn) [Compound 340, 2-(4-chloro-3-fluorophenoxy)-N-(2-hydroxy-4-{2-[4-(trifluoromethoxy)phenyl]acetamido}bicyclo[2.2.2]octan-1-yl)acetamide]",50 to 250
30,"O=C(COc1ccc(Cl)c(F)c1)NC12CCC(NC(=O)COc3ccc(Cl)c(F)c3)(CC1)C(O)C2O (stereo not drawn) [Compound 548, N,N′-(2,3-dihydroxybicyclo[2.2.2]octane-1,4-diyl)bis[2-(4-chloro-3-fluorophenoxy)acetamide]]",< 10
